Laboratory results taken from patent publication US10300052B2, “Methods for increasing CFTR activity” (THE UAB RESEARCH FOUNDATION, priority 2012, dated 2019).

Legend:
[1] = target: T1, WT-CFTR (Homo sapiens, UniProt P13569); test: Short-circuit current (Isc) in Ussing chambers, CFBE41o- cells with stable WT-CFTR expression; assay type: cell-based; settings: ivacaftor 10 μM after amiloride 100 μM and forskolin 100 nM, Cl- secretory gradient; CFBE41o- with stable WT-CFTR (FIG. 1A)
T1 construct: expressed in transfected cells
T1 sequence (P13569 whole entry): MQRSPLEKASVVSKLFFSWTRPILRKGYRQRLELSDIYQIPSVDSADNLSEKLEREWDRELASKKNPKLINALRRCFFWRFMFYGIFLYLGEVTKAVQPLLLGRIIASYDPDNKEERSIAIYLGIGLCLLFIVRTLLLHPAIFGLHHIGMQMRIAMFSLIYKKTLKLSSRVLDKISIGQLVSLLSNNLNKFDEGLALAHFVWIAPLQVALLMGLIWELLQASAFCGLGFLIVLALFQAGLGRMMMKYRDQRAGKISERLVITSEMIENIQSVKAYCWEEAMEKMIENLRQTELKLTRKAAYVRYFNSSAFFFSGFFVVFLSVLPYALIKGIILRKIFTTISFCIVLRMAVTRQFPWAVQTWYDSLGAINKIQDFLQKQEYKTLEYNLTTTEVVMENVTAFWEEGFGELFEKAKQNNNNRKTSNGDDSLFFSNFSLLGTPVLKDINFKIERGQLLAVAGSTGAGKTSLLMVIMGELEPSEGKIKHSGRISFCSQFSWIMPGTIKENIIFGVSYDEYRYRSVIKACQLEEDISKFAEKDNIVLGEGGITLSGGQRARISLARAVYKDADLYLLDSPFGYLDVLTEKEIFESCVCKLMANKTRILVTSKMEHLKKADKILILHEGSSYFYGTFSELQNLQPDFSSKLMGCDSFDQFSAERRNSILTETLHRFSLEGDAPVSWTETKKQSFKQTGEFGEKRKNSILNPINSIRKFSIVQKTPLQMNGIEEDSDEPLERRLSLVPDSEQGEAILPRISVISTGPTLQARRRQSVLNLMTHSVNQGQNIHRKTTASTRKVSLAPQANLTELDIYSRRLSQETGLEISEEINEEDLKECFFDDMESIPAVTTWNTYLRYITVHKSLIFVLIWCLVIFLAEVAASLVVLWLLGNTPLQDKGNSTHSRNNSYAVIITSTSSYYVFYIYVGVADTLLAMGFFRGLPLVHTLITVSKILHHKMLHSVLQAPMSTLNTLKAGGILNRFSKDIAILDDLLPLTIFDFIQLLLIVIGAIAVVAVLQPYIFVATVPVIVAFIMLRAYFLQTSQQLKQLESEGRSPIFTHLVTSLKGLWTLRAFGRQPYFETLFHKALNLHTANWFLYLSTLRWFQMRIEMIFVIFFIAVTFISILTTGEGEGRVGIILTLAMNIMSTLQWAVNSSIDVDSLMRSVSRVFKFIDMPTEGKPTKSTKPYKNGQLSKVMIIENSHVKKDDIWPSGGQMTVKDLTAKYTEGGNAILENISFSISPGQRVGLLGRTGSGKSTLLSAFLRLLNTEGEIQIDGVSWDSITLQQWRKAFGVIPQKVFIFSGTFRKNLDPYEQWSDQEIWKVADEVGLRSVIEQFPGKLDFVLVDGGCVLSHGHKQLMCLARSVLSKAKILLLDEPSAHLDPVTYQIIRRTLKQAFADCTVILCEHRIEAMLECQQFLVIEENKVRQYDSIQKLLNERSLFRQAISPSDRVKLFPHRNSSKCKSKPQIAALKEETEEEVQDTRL
Description: CFBE41o-cells complemented by stable expression of WT-CFTR (by a lentivirus promoter) are shown in comparison to CFBE41o-cells without WT CFTR complementation (parental cells). *P<0.05, **P<0.005, n=5/condition.
The CFTR potentiator ivacaftor was chosen as an exemplary CFTR activator. The activity of ivacaftor was examined in WT-CFTR expressing cells.
Short-circuit current (Isc) was measured under voltage clamp conditions using MC8 voltage clamps and P2300 Ussing chambers (Physiologic Instruments, San Diego, Calif.) as previously described (2). Monolayers were initially bathed on both sides with identical Ringer's solutions containing (in mM) 115 NaCl, 25 NaHCO3, 2.4 KH2PO4, 1.24 K2HPO4, 1.2 CaCl2, 1.2 MgC2, 10 D-glucose (pH 7.4). Bath solutions were vigorously stirred and gassed with 95%02:5% CO2. Short-circuit current measurements were obtained using an epithelial voltage clamp (Physiologic Instruments). A one-second three-mV pulse was imposed every 10 seconds to monitor resistance calculated using Ohm's law. Where indicated, the mucosal bathing solution was changed to a low Cl-solution containing 1.2 NaCl and 115 Na+ gluconate, and all other components as above. Amiloride (100 μM) was added to block residual Na+ current, followed by the agonists forskolin, ivacaftor, and ATP as indicated (minimum five-min observation at each concentration). […]

[2] = system: porcine trachea CFTR+/+; test: μOCT imaging of airway epithelial function in porcine trachea, CFTR+/+ animals; settings: ivacaftor 10 μM in bath, 37° C. (FIG. 7H)
Description: FIGS. 7A-7H show the effects of CFTR activators on airway epithelial function in intact porcine trachea by μOCT. FIGS. 7A-7B show representative μOCT images for a CFTR−/− (FIG. 7A) and CFTR+/+ (FIG. 7B) animal. FIGS. 7C-7F, respectively, show ASL depth (FIG. 7C), PCL depth (FIG. 7D), CBF (FIG. 7E) and MCT (FIG. 7F) measurements derived from μOCT images from CFTR−/− and CFTR+/+ animals. FIGS. 7G and 7H show the response of epithelial functional parameters, namely ASL depth and MCT in CFTR−/− (FIG. 7G) and CFTR+/+(FIG. 7H) animals in response to sequential pharmacologic intervention by ivacaftor (10 μM), forskolin (100 nM) and acetylcholine (100 μM).
To further investigate the role of CFTR activators in modulating airway epithelial cell function, CFTR activators were studied in combination with porcine trachea. In this example, porcine trachea from animals having a mutated CFTR (CFTR (−/−) and from animals having a WT-CFTR (CFTR+/+) were evaluated for ASL depth, PCL depth, CBF and MCT. The results are shown in FIGS. 7A-7H.
FIGS. 7G and 7H show the response of epithelial functional parameters, namely ASL depth, CBF and MCT in CFTR−/− and CFTR+/+ animals in response to sequential pharmacologic intervention by ivacaftor (10 μM), forskolin (100 nM) and acetylcholine (100 μM); in this experiment, acetylcholine served as a positive control to induce glandular extrusion in CF tissue). In these experiments, agonists were added to the bath solution and all experiments were conducted under physiological conditions (37° C. and 100% humidity). […] In contrast to FIG. 7G, ASL depth, CBF and MCT were all increased in response to ivacaftor treatment in CFTR+/+ animals, consistent with the results described above for human tissue.
Normal piglet tracheas were obtained from Exemplar Genetics (Sioux Center, Iowa). Tissue were dissected from one-day-old piglets and shipped on wet ice in DMEM. A modified protocol based on airway tissue handling and preparation methods developed by Ballard et al. (Am J Physiol Lung Cell Mol Physiol 298: L270-276, 2010) was employed. […]

[3] = system: HBE cells; test: Mucus transport studies (fluorescent beads) in HBE cells; assay type: cell-based, human; settings: ivacaftor 10 μM basolateral, co-stimulated with VIP 30 nM, vs control (FIG. 2C)
Description: HBE cells were washed with sterile PBS twice 1-2 days prior to addition of PEG beads. Fifty (50) μl of Diamine polyethylene glycol (PEG) coated fluorescent beads (1 μm, Molecular Probes, Eugene, Oreg., 1:500 dilution in PBS) were added to the apical surface by using a microsprayer aerosolizer (Penn-Century Inc Model IA-1B, Wyndmoor, Pa.). Following 24 h incubation, baseline images were obtained and then test compounds added to the basolateral compartment. Mucociliary transport (MCT) images were captured by time-lapse fluorescence imaging at four regions of interest per well located 1 mm from the periphery of the well and at each quadrant using an inverted epifluorescence microscope (Nikon Diaphot, Melvin, N.Y.; 488 nm excitation/519 nm emission). Linear transport rates were computed using Metamoph 7.0 by analyzing 10-15 particles per region (7).

[4] = target: G551D-CFTR (Homo sapiens, UniProt P13569, G551D); settings: in vitro and in CF subjects harboring the G551D-CFTR defect; reported; cited from earlier work
G551D-CFTR, sequence (P13569 whole entry G551D): as the sequence (P13569 whole entry) above, with G551D counted along it

CC(C)(C)c1cc(C(C)(C)C)c(NC(=O)c2c[nH]c3ccccc3c2=O)cc1O [ivacaftor]
anion transport (Isc) [1]: robust increases
ASL depth response [2]: increased
CBF response [2]: increased
MCT response [2]: increased
mucus transport (MCT) [3]: markedly increased above baseline
cAMP mediated ion transport activity of CFTR encoding the gating mutation G551D-CFTR [4]: significantly augment
